Results on 50 compounds are retold here after the Biogen ADME set (Fang et al. 2023).

For orientation: aqueous solubility means the concentration that dissolves in the medium under given conditions. Lower therefore signals a poorly soluble substance.

Molecules are shown by their SMILES. In brackets after ≈: the same amount, converted by molar mass. Some results are limits rather than exact numbers.

For this series the following is noted: for aqueous solubility: pH 6.8.

For the compound `CCC(=O)Nc1cccc(Oc2nc(Nc3ccc(N4CCN(C)CC4)cc3OC)ncc2Cl)c1`, the MDR1-MDCK efflux ratio stood at 14; the intrinsic clearance, human liver microsomes was 15.9 mL/min/kg; the intrinsic clearance, rat liver microsomes was determined as 238 mL/min/kg.
For `CCc1nc2ccccc2n1CC(=O)Nc1cnc2ccccc2c1`, the intrinsic clearance, human liver microsomes came to 21.3 mL/min/kg and the intrinsic clearance, rat liver microsomes amounted to 188 mL/min/kg.
As to `COc1cc(NC(=O)c2ccc(F)cc2C)ncn1`, the MDR1-MDCK efflux ratio was 0.558; the intrinsic clearance, human liver microsomes came to 8.37 mL/min/kg; the intrinsic clearance, rat liver microsomes was 49.1 mL/min/kg; the aqueous solubility stood at 15.8 µg/mL (≈ 60.3 µM).
Regarding `Cc1ccc(-n2ccnc2-c2ccoc2)c2cccnc12`, the MDR1-MDCK efflux ratio was 0.946; the intrinsic clearance, human liver microsomes amounted to 55.1 mL/min/kg; the intrinsic clearance, rat liver microsomes is 579 mL/min/kg; the aqueous solubility worked out at 19.9 µg/mL (≈ 72.1 µM).
Consider `Cc1ccnc(Oc2cc(N)ccc2C)c1`, for which the MDR1-MDCK efflux ratio worked out at 0.542; the intrinsic clearance, human liver microsomes is ≤ 4.74 mL/min/kg; the intrinsic clearance, rat liver microsomes worked out at 230 mL/min/kg; the aqueous solubility was 35.3 µg/mL (≈ 165 µM).
On the same counts, the results for `COC(=O)c1cc(F)c(C)c(NC(=O)CCCc2ccccn2)c1` are 0.785, 795 mL/min/kg, 1680 mL/min/kg and 43 µg/mL (≈ 130 µM).
The compound `COCCN(Cc1cccs1)Cc1cccc(C)c1O` showed an intrinsic clearance, human liver microsomes of 124 mL/min/kg; an intrinsic clearance, rat liver microsomes of 2100 mL/min/kg; an aqueous solubility of 1.05 µg/mL (≈ 3.6 µM).
As for `CC(C)(C)c1ccc(C(=O)Nc2ccc(C(=O)Nc3ccccc3)cc2)cc1`, the MDR1-MDCK efflux ratio worked out at 0.455 and the aqueous solubility came to 0.4 µg/mL (≈ 1.07 µM).
`CC(C)Cn1cnc2c1c(=O)[nH]c(=O)n2CC(C)C`: the MDR1-MDCK efflux ratio came to 1.96; the intrinsic clearance, human liver microsomes was ≤ 4.74 mL/min/kg; the intrinsic clearance, rat liver microsomes was determined as 73.9 mL/min/kg; the aqueous solubility stood at 55.3 µg/mL (≈ 209 µM).
`CNC(=O)c1cc(C2CCN(C)CC2)ncn1`: the MDR1-MDCK efflux ratio was determined as 0.605; the intrinsic clearance, human liver microsomes was ≤ 4.74 mL/min/kg; the intrinsic clearance, rat liver microsomes is ≤ 10.7 mL/min/kg; the aqueous solubility was found to be 32.5 µg/mL (≈ 139 µM).
Turning to `Cc1ccccc1NC(=O)Cn1nnc(C2CC2)n1`, the MDR1-MDCK efflux ratio came out at 0.895; the intrinsic clearance, human liver microsomes was ≤ 4.74 mL/min/kg; the intrinsic clearance, rat liver microsomes came to 51.4 mL/min/kg.
The matching figures for `CCc1[nH]nc(NC2CCC(C(=O)OC)CC2)c1C` (stereo not given): 0.826, 523 mL/min/kg and 296 mL/min/kg.
Regarding `COc1cc(OC)cc(-c2c(C)ncnc2OC)c1`, the MDR1-MDCK efflux ratio was 0.749; the intrinsic clearance, human liver microsomes is ≤ 4.74 mL/min/kg; the intrinsic clearance, rat liver microsomes worked out at 107 mL/min/kg.
On to `Cc1ccc(=O)n(CCOc2ccc(Cl)c(F)c2)n1`, for which the MDR1-MDCK efflux ratio came to 0.684; the intrinsic clearance, human liver microsomes was 71.2 mL/min/kg; the intrinsic clearance, rat liver microsomes worked out at 631 mL/min/kg.
For the compound `Cc1ccc(C(N)=O)c(OCc2c(Cl)ccc3cccnc23)c1`, the MDR1-MDCK efflux ratio amounted to 0.372 and the aqueous solubility was 0.61 µg/mL (≈ 1.87 µM).
In turn, `Cc1ccc(F)c(N(C#N)Cc2nnc(C)o2)c1` had an aqueous solubility of 44.6 µg/mL (≈ 181 µM).
For `Cc1nc(CN2C(=O)CN(C3CCCC3)C2=O)nc2ccccc12`, the MDR1-MDCK efflux ratio was 1.54; the intrinsic clearance, human liver microsomes is ≤ 4.74 mL/min/kg; the intrinsic clearance, rat liver microsomes was 823 mL/min/kg; the aqueous solubility was 43 µg/mL (≈ 132 µM).
For the compound `O=c1ccc(-c2ccc(F)cc2)nn1Cc1ccncc1`, the MDR1-MDCK efflux ratio was 0.674; the intrinsic clearance, human liver microsomes was 7.74 mL/min/kg; the intrinsic clearance, rat liver microsomes was 56.5 mL/min/kg; the aqueous solubility was determined as 46 µg/mL (≈ 163 µM).
In the case of `Cc1sc(-c2ccccn2)nc1-c1ccc(NC(=O)C(C)C)cc1`, the MDR1-MDCK efflux ratio is 0.624; the intrinsic clearance, human liver microsomes was determined as 15.4 mL/min/kg; the intrinsic clearance, rat liver microsomes was found to be 48.8 mL/min/kg; the aqueous solubility came out at 1.41 µg/mL (≈ 4.18 µM).
For the compound `Cc1noc(C)c1C(=O)N1CCCN(c2ccc(F)cc2)CC1`, the MDR1-MDCK efflux ratio came out at 1.8; the intrinsic clearance, human liver microsomes is 111 mL/min/kg; the intrinsic clearance, rat liver microsomes came to 566 mL/min/kg; the aqueous solubility amounted to 55.6 µg/mL (≈ 175 µM).
In the case of `CN(C)C(=O)c1ccnc(NCc2cccc(C#N)c2)c1`, the MDR1-MDCK efflux ratio came to 5.72; the intrinsic clearance, human liver microsomes is ≤ 4.74 mL/min/kg; the intrinsic clearance, rat liver microsomes worked out at 69 mL/min/kg.
For the compound `CN1CCCN(C(=O)NCCOc2ccc3c(c2)OCO3)CC1`, the MDR1-MDCK efflux ratio came out at 19.9; the intrinsic clearance, human liver microsomes was ≤ 4.74 mL/min/kg; the intrinsic clearance, rat liver microsomes is 20.3 mL/min/kg; the aqueous solubility amounted to 70 µg/mL (≈ 218 µM).
Take `CCOC(=O)N1CCN(C(=O)Nc2cccc3c2CCCC3)CC1`: the MDR1-MDCK efflux ratio stood at 1.68; the intrinsic clearance, human liver microsomes is 37.6 mL/min/kg; the intrinsic clearance, rat liver microsomes worked out at 394 mL/min/kg; the aqueous solubility is 51.6 µg/mL (≈ 156 µM).
Take `Cc1ccc(C(=O)COC(=O)c2cc(O)nc3ccccc23)cc1`: the MDR1-MDCK efflux ratio was 0.502 and the aqueous solubility was 0.69 µg/mL (≈ 2.15 µM).
With `CC1(C)O[C@@](C)([C@H]2CC3(CCNCC3)CO2)CC[C@@H]1O`, the MDR1-MDCK efflux ratio is 0.443; the intrinsic clearance, human liver microsomes was ≤ 4.74 mL/min/kg; the intrinsic clearance, rat liver microsomes is ≤ 10.7 mL/min/kg; the aqueous solubility stood at 42.6 µg/mL (≈ 150 µM).
As to `CC1CCC(O)(CSc2nnnn2C2CC2)CC1` (stereo not given), the MDR1-MDCK efflux ratio worked out at 0.616; the intrinsic clearance, human liver microsomes turned out to be 12.7 mL/min/kg; the intrinsic clearance, rat liver microsomes is 355 mL/min/kg.
Consider `Cc1ccc(C#N)c(NC(=O)CCc2ccccc2)n1`, for which the intrinsic clearance, human liver microsomes amounted to 11.1 mL/min/kg and the intrinsic clearance, rat liver microsomes amounted to 240 mL/min/kg.
Consider `Cc1cc(C(=O)N2CCS(=O)(=O)CC2)c(C)o1`, for which the intrinsic clearance, human liver microsomes was ≤ 4.74 mL/min/kg and the intrinsic clearance, rat liver microsomes is ≤ 10.7 mL/min/kg.
For the compound `NC(=O)c1noc([C@@H](CCCC2CCCCC2)CC(=O)NO)n1`, the intrinsic clearance, human liver microsomes was 7.31 mL/min/kg.
As to `CNCc1cc(N(C)C)nc(C2CCCN2C(=O)c2oc3ccc(Cl)cc3c2C)n1` (stereo not given), the MDR1-MDCK efflux ratio is 117; the intrinsic clearance, human liver microsomes stood at 44.7 mL/min/kg; the intrinsic clearance, rat liver microsomes turned out to be 840 mL/min/kg.
In turn, `NCCOc1cccc(C(F)(F)F)n1` showed an aqueous solubility of 21.8 µg/mL (≈ 105 µM).
The compound `Cc1ccnc(NC(=O)C2CCN(CCc3cccs3)CC2)c1` came in with an aqueous solubility of 65.5 µg/mL (≈ 199 µM). Against the preceding compound, the aqueous solubility is about 3-fold higher.
With `C[C@@]12CCCN1C(=O)[C@H](C1CCCCC1)NC2=O`, the MDR1-MDCK efflux ratio was 2.65; the intrinsic clearance, human liver microsomes was ≤ 4.74 mL/min/kg; the intrinsic clearance, rat liver microsomes was determined as 20.8 mL/min/kg.
Turning to `Cc1cc(F)ccc1CC(=O)N[C@@H]1CCOC[C@H]1OCCO`, the MDR1-MDCK efflux ratio was 19.7; the intrinsic clearance, human liver microsomes is ≤ 4.74 mL/min/kg; the intrinsic clearance, rat liver microsomes was ≤ 10.7 mL/min/kg; the aqueous solubility worked out at 47.8 µg/mL (≈ 153 µM).
With `COc1cccc(CN(C)c2cc(N3CCCC3)ncn2)n1`, the MDR1-MDCK efflux ratio is 0.683; the intrinsic clearance, human liver microsomes worked out at 128 mL/min/kg; the intrinsic clearance, rat liver microsomes worked out at 4460 mL/min/kg.
Turning to `CCn1cnnc1C1CCCN(c2ncnc3sc(-c4ccccc4)cc23)C1` (stereo not given), the aqueous solubility amounted to 34.8 µg/mL (≈ 89 µM).
For `C#CCNC(=O)c1cc(C(C)C)nn1CC`, the MDR1-MDCK efflux ratio was determined as 0.855; the intrinsic clearance, human liver microsomes was ≤ 4.74 mL/min/kg; the intrinsic clearance, rat liver microsomes stood at 12.4 mL/min/kg; the aqueous solubility turned out to be 28.4 µg/mL (≈ 130 µM).
Regarding `C[C@@H](NC(=O)c1cc(Br)c2c(c1)OCCO2)c1cn(-c2ccccc2)nn1`, the MDR1-MDCK efflux ratio came out at 3.48.
The compound `O=C(NCCc1cccc2cccnc12)C1CCCCC1` yielded an intrinsic clearance, human liver microsomes of 158 mL/min/kg; an intrinsic clearance, rat liver microsomes of 906 mL/min/kg; an aqueous solubility of 41.7 µg/mL (≈ 148 µM).
With `COc1ccc(OC)c(Cn2cnc3cn(C)nc3c2=O)c1`, the MDR1-MDCK efflux ratio worked out at 2.56; the intrinsic clearance, human liver microsomes is ≤ 4.74 mL/min/kg; the intrinsic clearance, rat liver microsomes came out at 50.8 mL/min/kg.
Regarding `CCOC(=O)N1CCC(Nc2nc3ccccc3s2)CC1`, the MDR1-MDCK efflux ratio came out at 0.812; the intrinsic clearance, human liver microsomes turned out to be 8.22 mL/min/kg; the intrinsic clearance, rat liver microsomes amounted to 294 mL/min/kg; the aqueous solubility turned out to be 49.2 µg/mL (≈ 161 µM).
On the same counts, the results for `CCOC(=O)C1(Cc2cc(-c3ccc(F)cc3)no2)CCN(Cc2ccccc2O)CC1` are 2.16, 155 mL/min/kg, 790 mL/min/kg and 6.94 µg/mL (≈ 15.8 µM).
With `CNCc1cc(N(C)C)nc(C2CCCN2C(=O)CCc2c[nH]c3ccccc23)n1` (stereo not given), the MDR1-MDCK efflux ratio is 35.1; the intrinsic clearance, human liver microsomes came to 50.6 mL/min/kg; the intrinsic clearance, rat liver microsomes was found to be 390 mL/min/kg.
In the case of `CCN(CC)CCCNc1ncc(-c2cc(C)no2)c(-c2ccco2)n1`, the MDR1-MDCK efflux ratio amounted to 17.5; the intrinsic clearance, human liver microsomes is 5.13 mL/min/kg; the intrinsic clearance, rat liver microsomes worked out at 312 mL/min/kg; the aqueous solubility is 69.8 µg/mL (≈ 196 µM).
With `Cc1cc(C(=O)N(C)Cc2ccsc2)no1`, the MDR1-MDCK efflux ratio amounted to 0.653; the intrinsic clearance, human liver microsomes is 11 mL/min/kg; the intrinsic clearance, rat liver microsomes is 241 mL/min/kg; the aqueous solubility came to 34.1 µg/mL (≈ 144 µM).
On to `COc1nc2sc(C(=O)NC3CC3)c(N)c2c(C)c1Cl`, for which the fraction unbound, human plasma came to 0.0176; the fraction unbound, rat plasma worked out at 0.0283; the intrinsic clearance, human liver microsomes worked out at 9.77 mL/min/kg; the intrinsic clearance, rat liver microsomes is 133 mL/min/kg.
`COCCN(C)C(=O)c1ccc(-c2cccc(-c3noc(C)n3)c2)cc1`: the MDR1-MDCK efflux ratio was 0.878; the intrinsic clearance, human liver microsomes was 11.4 mL/min/kg; the intrinsic clearance, rat liver microsomes was found to be 75.2 mL/min/kg.
Consider `Cc1nc(CNC(=O)c2ccc(F)c(C)c2)no1`, for which the intrinsic clearance, human liver microsomes is ≤ 4.74 mL/min/kg and the intrinsic clearance, rat liver microsomes is ≤ 10.7 mL/min/kg.
On to `COc1ccc(-c2ccc(Cn3nc(C)cc3C)cn2)cc1`, for which the MDR1-MDCK efflux ratio came out at 0.479; the intrinsic clearance, human liver microsomes was determined as 23.7 mL/min/kg; the intrinsic clearance, rat liver microsomes came out at 255 mL/min/kg.
Consider `Cc1cc(C(=O)N(C)Cc2ccccc2C)[nH]n1`, for which the intrinsic clearance, human liver microsomes is ≤ 4.74 mL/min/kg and the intrinsic clearance, rat liver microsomes was 239 mL/min/kg.
